Molecular target: P2Y12 receptor (Homo sapiens, UniProt Q9H244)
Assay: [33P]2MeS-ADP binding to washed human platelet membranes (Assay 1)
Design: the P2Y12 receptor, which is found on the surface of platelets; tissue Interstate Blood bank, Memphis, Tenn; host or cells: washed human platelets from platelet rich plasma
Conditions: for inhibition at 10 µM: at highest concentration tested
Experimental: 1. Inhibition of [^33P]2MeS-ADP Binding to Washed Human Platelet Membranes. The ability of a test compound to bind to the P2Y12 receptor was evaluated in a platelet membrane binding assay. In this competitive binding assay, the test compound competed against a radiolabelled agonist for binding to the P2Y12 receptor, which is found on the surface of platelets. Inhibition of binding of the labeled material was measured and correlated to the amount and potency of the test compound. Data from this assay are presented in Table F. Platelet rich plasma (“PRP”) was obtained from the Interstate Blood bank, Memphis, Tenn. Platelet rich plasma was prepared from blood units collected in ACD ((prepared by (1) combining: 2.5 g sodium citrate (Sigma S-4641); 1.5 g citric acid (Sigma C-0706); and, 2.0 g dextrose (Sigma G-7528); (2) bringing pH to 4.5; and (3) adding water to bring volume to 100 mL) and using the light spin protocol; this protocol involves centrifugation at room temperature for approximately 20 minutes at speeds up to 160×g. Platelet rich plasma is supplied in units of approximately 200 ml. Each unit is distributed into four 50 mL polypropylene conical tubes for centrifugation. Blood from each donor is maintained separately.
The 50 mL tubes were centrifuged for 15 minutes at 1100 rpm in Sorvall RT6000D (with H1000B rotor). Internal centrifuge temperature was maintained at approximately room temperature (22-24° C.). This spin pelleted cellular components remaining from the PRP preparation.
The supernatant was decanted into fresh 50 mL tubes. To avoid carry over of cellular components following the room temperature centrifugation, approximately 5 mL of PRP was left in the tube and discarded. The tubes were capped and inverted 2-3 times and allowed to stand at room temperature for at least 15 minutes following inversion.
Optionally, a Coulter Counter may be used to count platelets from the resting samples during the resting phase. Normal human platelet counts are expected to range from 200,000 to 400,000 per μL of PRP supernatant.
The 50 mL tubes containing PRP supernatant were centrifuged for 15 minutes at 2300-2400 rpm to loosely pellet the platelets. The supernatant from this spin was decanted immediately into a clean cell culture bottle (Corning bottle) and saved in case further centrifugation was needed. The pellet of each tube was resuspended in 2-4 mL of Wash buffer (pH 6.5) (1 L prepared new daily—134 mM NaCl (Sigma S-5150); 3 mM KCl (Sigma P-9333); 1 mM CaCl2 (JT Baker 1311-01); 2 mM MgCl2 (Sigma M-2670); 5 mM glucose (EM 4074-2); 0.3 mM NaH2PO4 (Sigma S-9638)/12 mM NaHCO3 (JT Baker 3506-01); 5 mM HEPES pH 7.4 (Gibco 12379-012); 0.35% BSA (Sigma A-7906); 330 mg Heparin (bovine lung, Sigma H-4898); and 30 mL of ACD) by repeated gentle aspiration using disposable polypropylene sample pipettes.
Wash buffer (pH 6.5) was added to each tube to bring the volume to approximately 40 mL. Each tube was incubated for at least 15 minutes at 37° C.
The tubes were then centrifuged again for 15 minutes at 2300-2400 rpm to loosely pellet the platelets. The supernatant was decanted and discarded. The pellet was resuspended in 2-4 mL of Assay buffer (pH 7.4) (1 L volume—134 mM NaCl; 3 mM KCl; 1 mM CaCl2; 2 mM MgCl2; 5 mM glucose; 0.3 mM NaH2PO4/12 mM NaHCO3; 5 mM HEPES pH 7.4; and 0.35% BSA) by repeated aspiration using disposable polypropylene sample pipettes.
The pooled platelet preparation was counted using a Coulter Counter. […]

[1] = washed human platelet membranes, competition with [33P]2MeS-ADP

Sequence of P2Y12 receptor (Q9H244 whole entry): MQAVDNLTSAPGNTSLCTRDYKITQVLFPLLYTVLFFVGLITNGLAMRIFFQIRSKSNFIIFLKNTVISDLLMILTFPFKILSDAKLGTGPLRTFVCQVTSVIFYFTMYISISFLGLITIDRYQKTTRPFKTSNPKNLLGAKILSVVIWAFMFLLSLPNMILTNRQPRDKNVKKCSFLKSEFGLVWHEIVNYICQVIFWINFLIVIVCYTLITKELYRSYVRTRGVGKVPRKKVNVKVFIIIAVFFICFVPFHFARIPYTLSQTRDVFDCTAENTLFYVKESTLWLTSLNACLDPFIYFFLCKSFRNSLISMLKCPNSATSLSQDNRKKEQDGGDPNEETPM

Row | inhibition at 10 µM [%] | IC50 [1] [µM] | Ki [1] [µM] | Compound
1 | 39.5 | > 10 | – | CCc1cc2c(N3CCN(C(=O)Cc4ccccc4)CC3)nc(SCc3ccccc3)nc2s1 [Example 85, 2-(benzylthio)-6-ethyl-4-[4-(phenylacetyl)piperazin-1-yl]thieno[2,3-d]pyrimidine]
2 | 52.9 | 7.93 | 7.51 | CCc1cc2c(N3CCN(C(=O)Cc4ccccc4)CC3)nc(SCc3ccco3)nc2s1 [Example 86, 6-ethyl-2-[(2-furylmethyl)thio]-4-[4-(phenylacetyl)piperazin-1-yl]thieno[2,3-d]pyrimidine]
